Data on 1 molecule can be found in US12214036B2, “Combination therapy comprising AXL/MER and PD-1/PD-L1 inhibitors” (Incyte Corporation, priority 2020, dated 2025).

For orientation: IC50 means the concentration that inhibits the measured activity by half.

For assay [1], the target named is T1, MER (Homo sapiens, UniProt Q12866).
T1 construct: recombinant phosphorylated forms of the kinase domains for AXL, MER and TYRO3; purchased Carna Biosciences 08-108
T1 sequence (Q12866 587-858 limits assumed): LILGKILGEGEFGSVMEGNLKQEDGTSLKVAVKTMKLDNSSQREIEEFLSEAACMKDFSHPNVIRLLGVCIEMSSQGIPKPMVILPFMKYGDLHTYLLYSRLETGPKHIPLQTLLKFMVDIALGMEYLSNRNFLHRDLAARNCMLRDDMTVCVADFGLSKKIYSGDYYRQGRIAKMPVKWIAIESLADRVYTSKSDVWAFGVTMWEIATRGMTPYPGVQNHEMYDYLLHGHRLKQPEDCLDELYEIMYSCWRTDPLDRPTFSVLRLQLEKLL
Description: TR-FRET kinase assay, cMER. In kind it is biochemical. As to the method: The biochemical potency of Compound 1 to inhibit the enzymatic activity of TAM family members was investigated by TR-FRET assays using recombinant phosphorylated forms of the kinase domains for AXL, MER and TYRO3.
Phospho-AXL (pAXL), cMER and Tyro3 kinase activities were measured by time-resolved fluorescence energy transfer (TR-FRET) assays. Autophosphorylation of AXL was carried out before the kinase assay by incubating the recombinant AXL protein (ThermoFisher Scientific; #PV4275) in buffer containing 50 mM Tris, pH 7.5, 0.2 mg/mL AXL, 5 mM ATP, 20 mM MgCl2 and 2 mM dithiothreitol (DTT) at room temperature for 1 hour. […] The plate was incubated for 30 minutes at room temperature, and homogenous time resolved fluorescence (HTRF) signal was measured on a PheraStar FS plate reader (BMG Labtech, Ortenberg, Germany). Percent inhibition was calculated for each concentration, and half maximal inhibitory concentration (IC50) value was generated from curve fitting with GraphPad Prism software (San Diego, Calif.).
Compound reversibility was determined by measuring the recovery of cMER enzymatic activity after a rapid and large dilution of the cMER-inhibitor complex. cMER, ATP, and biotin-labeled peptide substrate were diluted in kinase assay buffer containing 50 mM HEPES, pH 7.5, 10 mM MgCl2, 1 mM EGTA, 0.01% NP-40, and 2 mM DTT. […]
In general terms: TR-FRET usually uses a lanthanide donor and a delayed reading to cut background.

Assay [2] has as its system macrophage-mediated suppression of T-cell proliferation. Description: Macrophage suppression of T-cell proliferation assay. In kind it is cell-based, human. Here is the method: To examine the functional activity of Compound 1, the effects on macrophage-mediated suppression of T-cell proliferation were evaluated.
Human PBMCs were isolated from the peripheral blood of healthy donors by density gradient centrifugation on Ficoll-Hypaque (GE Healthcare, Chicago, Ill.; #17-1440-02) followed by purification with anti-CD14 Microbeads (Miltenyi Biotec; #130-050-201). Isolated CD14^+ monocytes/macrophages were incubated with 100 ng/mL M-CSF (R&D Systems; #216-MC) and 50 ng/mL TGFβ1 (R&D Systems; #240-B) at 37° C. for 6 days; 100 μL/well of CD14^+ macrophages were seeded at 0.5×10^6 cells/mL in a 96-well round-bottomed culture plate (Costar; #3799) and treated with Compound 1 overnight at 37° C. CD4^+CD25^− effector T (Teff) cells were isolated using the Dynabeads regulatory CD4^+CD25^+ T-cell kit (Life Technologies; #11363D) and the Teff cells were labeled with carboxyfluorescein succinimidyl ester (CFSE) using the CellTrace CFSE Cell Proliferation kit (ThermoFisher Scientific; #C34554). […] Teff cells were analyzed by a flow cytometer (BD LSRFortessa X-20, BD Biosciences, San Jose, Calif.) and the cell-free supernatant was tested in the Luminex assay (Millipore; #HCYTOMAG-60K_38plex) to measure the concentrations of different cytokines and chemokines.

On to `CC(C)C(=O)N1CCC(c2cc(-c3ccc(NC(=O)c4cn(C(C)C)c(=O)n(-c5ccccn5)c4=O)cc3)c3c(N)ncnn23)CC1` [Compound 1, N-(4-(4-Amino-7-(1-isobutyrylpiperidin-4-yl)pyrrolo[1,2-f][1,2,4]triazin-5-yl)phenyl)-1-isopropyl-2,4-dioxo-3-(pyridin-2-yl)-1,2,3,4-tetrahydropyrimidine-5-carboxamide], for which the “mode of inhibition with respect to ATP concentration” value in assay [1] (MER kinase assay, IC50 at 25, 100, 300, 1000 μM ATP (FIG. 1)) is recorded as “ATP-competitive mode of inhibition”. Also, in assay [1] (average from multiple lots, n=25, read-out: IC50 against MER), the IC50 was 3.17 ± 1.97 nM. Moreover, in assay [2] (FIG. 5A), the “effect on macrophage-mediated suppression of T-cell proliferation” value is recorded as “partially reversed macrophage-mediated suppression of T-cell proliferation”. In assay [2] (macrophage/T-cell co-culture supernatant, FIG. 5B), the IFN-γ production result was “increase in IFN-γ production”.
